# From PMC12494543, “Identification of ALKBH6 as a nucleotide demethylase with a distinct substrate preference” (The Journal of Biological Chemistry, 2025)
# Experiments:
# [1] = biological target: T1, ALKBH6 (Homo sapiens, UniProt Q3KRA9); assay: Intrinsic tryptophan fluorescence quenching (Stern-Volmer); format: binding; details: WT ALKBH6, 2OG omitted
# T1 construct: His-tag; made in house
# Experimental: (§1) All tryptophan fluorescence spectroscopy experiments were performed using a multimode plate reader (PerkinElmer). The excitation and emission wavelengths were fixed at 280 nm and 356 nm, respectively. To measure ALKBH6–ligand interactions, recombinant ALKBH6 (500 nM), and increasing concentrations of ligand (0–80 μM) were equilibrated in binding buffer (50 mM Hepes, pH 7.6, 300 mM KCl) for 1 h. For Stern–Volmer quenching analysis, the F0/F = 1 + KSV(L) formula was used, where, KSV is the Stern–Volmer constant, L is the concentration of the quencher, F0 and F represent the steady-state fluorescence intensities in the absence and presence of quencher, respectively. All the data were calculated with best-fit parameter values and 95% confidence intervals in GraphPad Prism software.
# [2] = biological target: T1, ALKBH6; assay: Demethylation assay by HPLC analysis; format: biochemical; details: substrate 250 and 500 μM, 30 min
# Experimental: (§2) Following ALKBH6-mediated demethylation, NMPs and dNMPs were analyzed in an HPLC system (Shimadzu) equipped with a reversed-phase Shim-pack GIST C18 5 μm separation column (250 × 4.6 mm). For majority of the nucleotides including 1me-AMP, 1me-dAMP, 7me-dGMP, 6me-AMP, 7me-GMP, 3me-dCMP, dAMP, dCMP AMP, GMP, the column was equilibrated with mobile phase A (50 mM ammonium acetate) and mobile phase B (50 mM ammonium acetate, 50% of acetonitrile and 0.1% trifluoroacetic acid. For dGMP, different mobile phase A (50 mM ammonium acetate, 3% methanol, pH-5.0) and mobile phase B (methanol) were used. The peaks were identified based on the elution time of the standards (Fig. S9) purchased from Sigma and further analyzed using LabSolutions software (www.shimadzu.com) and analyzed by mass spectrometry.
# [3] = tested on: MTH1; design: method as in PMID 30304478; details: MTH1 substrate; cited from earlier work
# [4] = biological target: T1, ALKBH6; assay: FDH-coupled formaldehyde release demethylation assay; format: biochemical; details: for formaldehyde release / demethylation by ALKBH6: FDH-coupled assay, tested as substrate; for inhibition of ALKBH6-mediated demethylation: me-dNMPs as substrate
# Experimental: (§3) NMPs including 1meAMP (Jena Bioscience, NU-1029-1,) 7meGMP (Jena Bioscience, NU-1135S), 6me-AMP (Sigma, M2780) were purchased. N-methylated deoxy-NMPs were prepared by methylating chemically synthesized 30-mer oligonucleotide containing either dA, dG, dC, or dT by MMS (5%, v/v) (0.59 M) MMS (Sigma, 129925) and purified as described before ([17]). The oligonucleotides were digested with nuclease P1 (NEB) at 37 °C for 4 h to produce deoxy-NMPs. After heat inactivating the nuclease, dNMPs were purified by HPLC and used for the demethylation reaction. N-methylated NMPs were purified similarly, using RNA as the starting material. For the demethylation reaction, ALKBH6 (1 μM) and me-dNMPs (1 mM) were mixed in the dioxygenase reaction buffer and incubated at 37 °C for 30 min. Formaldehyde release was detected by FDH-coupled DNA repair assay as described before ([32], [33]). Briefly, 1 mM NAD+ and 0.01 U FDH were added to the dioxygenase reaction buffer containing methylated nucleotide and ALKBH6. NADH generated was detected by the characteristic absorption peak (340 nm) using a 96-well multimode reader (Synergy, Biotek Instrument). Formaldehyde production was quantified from the standard curve and the initial velocities were determined using various substrate concentrations. The results were plotted and analyzed using GraphPad Prism.
# [5] = tested on: ALKBH3; design: method as in PMID 28269980; details: cited from earlier work
# [6] = biological target: T1, ALKBH6; assay: Thermal shift analysis (DSF, SYPRO Orange); format: binding; details: from ΔTm vs ligand concentration; read-out: apparent dissociation constant
# Experimental: (§4) All the experiments were performed in Eco Real-Time PCR system as described before ([55]). Purified recombinant His-tag ALKBH6 or ALKBH6-Y120A (5 μM) was incubated with varying concentrations (0–50 μM) of 7methyl-GMP in binding buffer (50 mM Hepes pH7.6, and 75 mM KCl). SYPRO Orange was added to the reaction (20 μl) and melting derivatives (-dRFU/dT) of fluorescence emission were determined by measuring the fluorescence with temperature increment of 0.1 °C from 40 °C to 100 °C. The ΔTm was calculated by subtracting Tm of ALKBH6 from Tm of ALKBH6 with 7methyl-GMP. The changes of Tm (ΔTm) were plotted against increasing concentrations of 7methyl-GMP and dissociation constant was determined by using one site specific binding formula of GraphPad Prism software.
# [7] = biological target: T2, ALKBH6 Y120A (Homo sapiens, UniProt Q3KRA9, Y120A); assay: Thermal shift analysis (DSF, SYPRO Orange); format: binding
# T2 construct: His-tag; made in house
# T2 sequence (Q3KRA9 whole entry Y120A): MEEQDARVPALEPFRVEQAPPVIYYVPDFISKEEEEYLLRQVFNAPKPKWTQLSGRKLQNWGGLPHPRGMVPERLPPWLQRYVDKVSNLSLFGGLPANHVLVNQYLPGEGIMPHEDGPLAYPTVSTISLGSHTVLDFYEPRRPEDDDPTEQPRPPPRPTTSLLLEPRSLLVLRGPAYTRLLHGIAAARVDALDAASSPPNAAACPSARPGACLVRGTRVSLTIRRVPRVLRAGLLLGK
# Experimental: as §4
# [8] = biological target: T3, ALKBH6 E115A (Homo sapiens, UniProt Q3KRA9, E115A); assay: Intrinsic tryptophan fluorescence quenching (Stern-Volmer); format: binding
# T3 construct: His-tag; made in house
# T3 sequence (Q3KRA9 whole entry E115A): as the sequence (Q3KRA9 whole entry Y120A) above, with E115A, A120Y counted along it
# Experimental: as §1
# [9] = biological target: T2, ALKBH6 Y120A; assay: as above; format: binding
# Experimental: as §1
# [10] = biological target: T2, ALKBH6 Y120A; assay: Demethylation assay by HPLC analysis; format: biochemical; details: substrate 500 μM
# Experimental: as §2
# [11] = biological target: T4, ALKBH6 E115 mutant (Homo sapiens, UniProt Q3KRA9, E115A); assay: FDH-coupled formaldehyde release demethylation assay; format: biochemical; details: substrate 500 μM
# T4 construct: His-tag; made in house
# T4 sequence (Q3KRA9 whole entry E115A): as the sequence (Q3KRA9 whole entry Y120A) above, with E115A, A120Y counted along it
# Experimental: as §3
# [12] = tested on: AlkB; details: AlkB substrate; cited from earlier work
# [13] = tested on: ALKBH6; assay: ALKBH6 knockdown by shRNA, qPCR; format: cell-based, human; details: MCF7 cells, 48 h after transfection, vs Sh-control
# Description: The GFP-tagged ALKBH6 expression plasmids were constructed by cutting the PCR-amplified WT ALKBH6 with XhoI and EcoRI, and then cloned in-frame and upstream of the sequence encoding the GFP pEGFP-N1 (Clontech). ALKBH6 shRNA constructs were generated using reported sequences (shALKBH6#1 5′ AGGAGTATTTGCTTCGACA 3′, shALKBH6#2 5′ […] 3′) and cloned into the pSilencer 2.1-U6 puro shRNA vector. All the shRNA constructs were confirmed by sequencing (Fig. S6). For negative control, pSilencer 2.1-U6 puro vector was used.
# MCF7 cells were maintained in Dulbecco's modified Eagle's medium (DMEM) with 10% fetal bovine serum at 37 °C in a humidified air containing 5% CO2. Stable ALKBH6 knockdown cell line was generated by inserting the target sequence for ALKBH6 or the scramble control into the pSilencer2.puro (pSil) vector (Ambion) to form short hairpin RNAs for RNAi. For plasmid transfection in MCF7 cells, cells were suspended in DMEM without fetal bovine serum or antibiotics at a concentration of 1 × 10^7 cells/ml. A volume of 0.1 ml was transferred to a sterile electroporation cuvette (Bio-Rad Gene Pulser cuvette) and kept at room temperature for 5 min in the presence of 15 μg plasmid. Electroporation was performed using the Gene Pulser Xcell System (Bio-Rad) with 220 V/cm, 950 μF capacitance, and infinite resistance. […]
# [14] = substrate of ALKBH6, Michaelis-Menten
# T1 sequence (Q3KRA9 whole entry): as the sequence (Q3KRA9 whole entry Y120A) above, with A120Y counted along it
compound,measurement,setting,value
"C[n+]1cnc2c(ncn2[C@@H]2O[C@H](COP(=O)(O)O)[C@@H](O)[C@H]2O)c1N [1me-AMP, N-1-methyl-adenosine monophosphate]",Stern-Volmer constant (Ksv),[1],0.011 ± 0.002 µM⁻¹
same,demethylation by ALKBH6 (HPLC),[2],converted to AMP
Cn1c(N)nc2c(ncn2[C@@H]2O[C@H](COP(=O)(O)OP(=O)(O)OP(=O)(O)O)[C@@H](O)[C@H]2O)c1=O [1me-GTP],Stern-Volmer constant (Ksv),[1],0.004 µM⁻¹
COc1nc(N)nc2c1ncn2[C@@H]1O[C@H](COP(=O)(O)OP(=O)(O)OP(=O)(O)O)[C@@H](O)[C@H]1O [O^6-methyl-GTP],kcat,[3],0.3 s⁻¹
Cn1c[n+]([C@@H]2O[C@H](COP(=O)([O-])OP(=O)(O)OP(=O)(O)O)[C@@H](O)[C@H]2O)c2nc(N)[nH]c(=O)c21 [7me-GTP],Stern-Volmer constant (Ksv),[1],0.007 µM⁻¹
same,formaldehyde release / demethylation by ALKBH6,[4],comparatively less
"Cn1c(=N)cc[nH]c1=O [3meC, N-3-methylcytosine]",kcat,[5],approximately 1.7 min^−1
CNc1ncnc2c1ncn2[C@@H]1O[C@H](COP(=O)(O)O)[C@@H](O)[C@H]1O [6me-AMP],demethylation by ALKBH6 (HPLC),[2],did not observe any demethylation
same,formaldehyde release / demethylation by ALKBH6,[4],did not observe any demethylation
"Cn1c[n+]([C@@H]2O[C@H](CO)[C@@H](O)[C@H]2O)c2nc(N)[nH]c(=O)c21 [7me-guanosine, reference compound]",formaldehyde release / demethylation by ALKBH6,[4],could not demethylate
Cn1cnc2c(ncn2[C@@H]2O[C@H](COP(=O)(O)OP(=O)(O)OP(=O)(O)O)[C@@H](O)[C@H]2O)c1=N [1me-ATP],formaldehyde release / demethylation by ALKBH6,[4],comparatively less
"O=C(O)CCC(=O)O [succinate, reference compound]",inhibition of ALKBH6-mediated demethylation,[4],inhibited
C[n+]1cn([C@H]2C[C@H](O)[C@@H](COP(=O)(O)O)O2)c2nc(N)[nH]c(=O)c21 [7me-dGMP],demethylation by ALKBH6 (HPLC),[2],efficiently demethylate
same,formaldehyde release / demethylation by ALKBH6,[4],Formaldehyde release was observed
same,Km,[4]; [14],1.03 µM
same,kcat,[4]; [14],0.18 s⁻¹
Cn1c(=N)ccn([C@H]2C[C@H](O)[C@@H](COP(=O)(O)O)O2)c1=O [3me-dCMP],demethylation by ALKBH6 (HPLC),[2],efficiently demethylate
same,formaldehyde release / demethylation by ALKBH6,[4],Formaldehyde release was observed
COc1nc(N)nc2c1ncn2[C@H]1C[C@H](O)[C@@H](COP(=O)(O)OP(=O)(O)OP(=O)(O)O)O1 [O6-methyl-dGTP],Km,[3],13.2 µM
same,kcat,[3],8.3 s⁻¹
"C[n+]1cn([C@@H]2O[C@H](COP(=O)(O)O)[C@@H](O)[C@H]2O)c2nc(N)[nH]c(=O)c21 [7me-GMP, N-7-methyl-GMP]",Kd,[6],620 nM
same,ΔTm shift,[7],no significant ΔTm shift
same,Stern-Volmer constant (Ksv),[1],0.036 ± 0.009 µM⁻¹
same,Stern-Volmer constant (Ksv),[8],0.035 ± 0.008 µM⁻¹
same,Stern-Volmer constant (Ksv),[9],negative
same,demethylation by ALKBH6 (HPLC),[2],converted
same,demethylation (HPLC end product),[10],little demethylation
same,demethylation activity over time,[11],comparable to WT ALKBH6
same,formaldehyde release / demethylation by ALKBH6,[4],Formaldehyde release was observed
Cn1cnc2c(ncn2[C@H]2C[C@H](O)[C@@H](COP(=O)(O)O)O2)c1=N [1me-dAMP],demethylation by ALKBH6 (HPLC),[2],efficiently demethylate
same,Km,[12],2 µM
same,kcat,[12],0.07 s⁻¹
same,formaldehyde release / demethylation by ALKBH6,[4],Formaldehyde release was observed
"O=C(O)CCC(O)C(=O)O (stereo not shown) [2HG, 2-hydroxyglutarate, reference compound]",inhibition of ALKBH6-mediated demethylation,[4],inhibited
"Cn1cnc2c(ncn2[C@@H]2O[C@H](CO)[C@@H](O)[C@H]2O)c1=N [1me-adenosine, reference compound]",formaldehyde release / demethylation by ALKBH6,[4],could not demethylate
"Sh #1: shRNA to ALKBH6, 5′ AGGAGTATTTGCTTCGACA 3′ in pSilencer 2.1-U6 puro vector (shRNA in pSilencer vector; only target-sense given)",reduction of ALKBH6 expression (knockdown),[13],75%
"Sh #2: shRNA to ALKBH6, 5′ GCACCACCTGTAATCTACTAT 3′ in pSilencer 2.1-U6 puro vector (shRNA in pSilencer vector; only target-sense given)",reduction of ALKBH6 expression (knockdown),[13],more than 90%
